pEC50, pIC50: −log10 of the molar value. Activity calls are given as the source filed them. The calls are words filed in the database; no cut-off is given here.
How the values were obtained:
[1] = Aggregation property of compound in 50 mM KPi buffer at pH 7 assessed as critical aggregation concentration by DLS assay; assay type: physicochemical
[2] = Aggregation property of compound in DMEM media assessed as critical aggregation concentration by DLS assay; assay type: physicochemical
[3] = Inhibition of Beta-lactamase AmpC (unknown origin) using CENTA as chromogenic substrate preincubated for 5 mins followed by substrate addition and measured for 80 sec by absorbance based analysis; design: species or system Bacteria
Bacteria [4] = assay: (§1) Inhibition of Beta-lactamase AmpC (unknown origin) using CENTA as chromogenic substrate assessed as enzyme recovery by measuring residual activity at approximately IC90 preincubated for 5 mins in presence of triton X-0.01% followed by substrate addition and measured for 80 sec by absorbance based analysis relative to control; details: time 380.0 sec
Bacteria [5] = assay: as §1, with “of 10 mg/ml BSA” for “of triton X-0.01%”, “by enzyme” for “by substrate”, “measured after 5 mins” for “measured for 80 sec”; details: time 10.0 min
[6] = Absorption property of compound in DMEM media at 100 to 200 uM at 500 to 700 nm by luciferase assay; assay type: physicochemical; details: dose 100-200 µM
SARS-CoV-2 [7] = assay: Antiviral activity against luciferase independent SARS CoV-2 spike-pseudotyped lentivirus infected in human A549-hACE2-TMPRSS2 cells assessed as inhibition of viral entry by measuring reduction in luciferase activity incubated for 24 hrs by luciferase reporter assay; assay type: functional, organism-based; details: Severe acute respiratory syndrome coronavirus 2
SARS-CoV-2 [8] = assay: Antiviral activity against luciferase independent SARS CoV-2 spike-pseudotyped lentivirus infected in human A549-hACE2-TMPRSS2 cells assessed as inhibition of viral entry compound spin-down for 1 hr followed by viral infection and measured after 24 hrs by luciferase reporter assay; assay type: functional, organism-based; details: Severe acute respiratory syndrome coronavirus 2, A549-hACE2-TMPRSS2
SARS-CoV-2 [9] = assay: Antiviral activity against luciferase independent SARS CoV-2 spike-pseudotyped lentivirus infected in human A549-hACE2-TMPRSS2 cells assessed as inhibition of viral entry measured after 24 hrs before centrifugation by luciferase reporter assay; assay type: functional, organism-based; details: Severe acute respiratory syndrome coronavirus 2, A549-hACE2-TMPRSS2
SARS-CoV-2 [10] = assay: Antiviral activity against SARS-CoV-2; assay type: functional, organism-based; details: Severe acute respiratory syndrome coronavirus 2
[11] = Inhibition of porcine heart MDH using oxaloacetic acid as substrate preincubated for 5 mins followed by substrate and […] addition and measured for 80 sec by absorbance based analysis; design: species or system Sus scrofa
[12] = Cytotoxicity against human A549-hACE2-TMPRSS2 assessed as reduction in cell viability incubated for 24 hrs by MTT assay; assay type: toxicity, cell-based; details: a549-hace2-tmprss2, 24 h
SARS-CoV-2 [13] = assay: Antiviral activity against SARS CoV-2 spike-pseudotyped lentivirus infected in human A549-hACE2-TMPRSS2 cells assessed as inhibition of viral entry incubated for 24 hrs in absence of BSA by luciferase reporter assay; assay type: functional, organism-based; details: Severe acute respiratory syndrome coronavirus 2, A549-hACE2-TMPRSS2, 24 h
SARS-CoV-2 [14] = assay: Antiviral activity against SARS CoV-2 spike-pseudotyped lentivirus infected in human A549-hACE2-TMPRSS2 cells assessed as inhibition of viral entry preincubated with 10 mg/ml BSA for 5 mins followed by viral infection and further incubated for 24 hrs by luciferase reporter assay; assay type: functional, organism-based; details: Severe acute respiratory syndrome coronavirus 2, A549-hACE2-TMPRSS2
[15] = target: Spike glycoprotein (Severe acute respiratory syndrome coronavirus 2) (UniProt P0DTC2); assay: Binding affinity to Alex-fluor-647 labeled SARS-CoV-2 spike protein assessed as protein-colloid complex formation by measuring fluorescence puncta formation at 200 uM incubated for 5 mins by confocal microscopic analysis
Sus scrofa [16] = species: Sus scrofa; assay: (§2) Inhibition of porcine heart MDH using oxaloacetic acid as substrate assessed as enzyme recovery by measuring residual activity at approximately IC90 preincubated for 5 mins in presence of triton X-0.01% followed by substrate and NADPH addition and measured for 80 sec by absorbance based analysis relative to control; details: time 380.0 sec
Sus scrofa [17] = species: Sus scrofa; assay: as §2, with “10 mg/ml BSA” for “triton X-0.01%”, “enzyme” for “substrate and NADPH”, “after 5 mins” for “for 80 sec”; details: time 10.0 min
SARS-CoV-2 [18] = assay: Antiviral activity against luciferase independent SARS CoV-2 spike-pseudotyped lentivirus infected in human A549-hACE2-TMPRSS2 cells assessed as inhibition of viral entry at 31.6 to 63.3 uM compound spin-down for 1 hr followed by viral infection and measured after 24 hrs by luciferase reporter assay; assay type: functional, organism-based; details: Severe acute respiratory syndrome coronavirus 2, dose 31.6-63.3 µM, time 25.0 hrs
SARS-CoV-2 [19] = assay: Antiviral activity against SARS-CoV-2 infected in Vero E6 cells assessed as reduction in viral infectivity; assay type: functional, organism-based; details: Severe acute respiratory syndrome coronavirus 2, Vero C1008
[20] = target: Spike glycoprotein (Severe acute respiratory syndrome coronavirus 2) (UniProt P0DTC2); assay: (§3) Binding affinity to Alex-fluor-647 labeled SARS-CoV-2 spike protein assessed as protein-colloid complex formation by measuring fluorescence puncta formation incubated for 5 mins by confocal microscopic analysis
[21] = target: Spike glycoprotein (Severe acute respiratory syndrome coronavirus 2) (UniProt P0DTC2); assay: Binding affinity to Alex-fluor-647 labeled SARS-CoV-2 spike protein assessed as protein-colloid complex formation by measuring fluorescence puncta formation incubated for 5 mins in presence of 0.025% Tween-80 by confocal microscopic analysis
[22] = target: Spike glycoprotein (Severe acute respiratory syndrome coronavirus 2) (UniProt P0DTC2); assay: as §3, with “puncta formation compound preincubated with 10 mg/ml BSA for 5 mins followed by protein addition and further incubated for” for “puncta formation incubated for”
Sus scrofa [23] = species: Sus scrofa; assay: Inhibition of porcine heart MDH using oxaloacetic acid as substrate at approximately IC90 spin-down for 1 hr followed by enzyme addition and measured after 5 mins by absorbance based analysis; details: time 65.0 min
SARS-CoV-2 [24] = assay: Antiviral activity against SARS-CoV-2 pseudovirus infected in 293T/ACE2 cells assessed as reduction in virus entry preincubated with compound followed by infection in cells and measured after 48 hrs by luciferase based assay; assay type: functional, organism-based; details: Severe acute respiratory syndrome coronavirus 2, 293T/ACE2

Row | Structure (SMILES) | CAC [1] | CAC [2] | Activity [6] | Activity (SARS-CoV-2 [7]) | pEC50 (SARS-CoV-2 [10]) | pIC50 [11] | pEC50 (SARS-CoV-2 [13]) | Activity (Sus scrofa [16]) | Activity (Sus scrofa [17]) | other results
1 | CC1(C)[C@@H](O[C@H]2O[C@H](C(=O)O)[C@@H](O)[C@H](O)[C@H]2O[C@@H]2O[C@H](C(=O)O)[C@@H](O)[C@H](O)[C@H]2O)CC[C@]2(C)[C@H]3C(=O)C=C4[C@@H]5C[C@@](C)(C(=O)O)CC[C@]5(C)CC[C@@]4(C)[C@]3(C)CC[C@@H]12 [GLYCYRRHIZIN] | 10 µM | 15 µM | Not Active | Active | 2.60 |  |  |  |  | pIC50 [3]: 4.48; Activity (Bacteria [4]): 47%; Activity (Bacteria [5]): 60%; pEC50 (SARS-CoV-2 [8]): 4.34; pEC50 (SARS-CoV-2 [9]): 5.59
2 | CC1(C)Cc2c(-c3ccccc3)c(-c3ccc(Cl)cc3)c(CC(=O)O)n2C1 [LICOFELONE] | 54 µM | 5.5 µM | Not Active |  |  | 4.64 |  |  |  | Activity [12]: Toxic
3 | CN1CCCC(n2nc(Cc3ccc(Cl)cc3)c3ccccc3c2=O)CC1 (stereo not drawn) [AZELASTINE] |  |  |  | Active |  |  | 4.57 |  |  | pEC50 (SARS-CoV-2 [14]): 4.35; pEC50 (SARS-CoV-2 [8]): 4.89; pEC50 (SARS-CoV-2 [9]): 4.73; Activity [15]: inactive
4 | COc1c(O)cc2oc(-c3ccccc3)cc(=O)c2c1O [OROXYLIN A] |  |  | Not Active |  | 4.70 | 4.14 |  | 42% | 33% | Activity (SARS-CoV-2 [18]): Active
5 | CC(C)=CCc1c(O)ccc(C(=O)/C=C/c2ccc(O)cc2)c1O [ISOBAVACHALCONE] | 6.1 µM | 63 µM | Not Active |  |  | 4.44 |  | 109% | 108% | Activity [12]: Toxic
6 | COc1cc(/C=C/C(=O)CC(=O)/C=C/c2ccc(O)c(OC)c2)ccc1O [CURCUMIN] | 26 µM | 12 µM | Not Active |  |  | 4.85 |  | 116% | 124% | pEC50 (SARS-CoV-2 [19]): 4.79
7 | O=c1cc(-c2ccc(O)c(-c3c(O)cc(O)c4c(=O)cc(-c5ccc(O)cc5)oc34)c2)oc2cc(O)cc(O)c12 [AMENTOFLAVONE] | 25 µM | 100 µM |  |  |  | 5.21 |  | 93% | 78% | 
8 | CNC(=O)c1cc(Oc2ccc(NC(=O)Nc3ccc(Cl)c(C(F)(F)F)c3)cc2)ccn1 [SORAFENIB] |  |  |  | Active |  |  | 6.39 |  |  | pEC50 (SARS-CoV-2 [14]): 4.68; pEC50 (SARS-CoV-2 [9]): 6.57
9 | Cc1cc(O)c2c(c1)C(=O)c1cc(O)cc(O)c1C2=O [EMODIN] | 8.6 µM | 63.1 µM | Not Active | Active | 4.60 | 4.41 | 5.66 |  | 67% | pEC50 (SARS-CoV-2 [9]): 5.65; Activity [20]: Active; Activity [21]: inactive; Activity [22]: inactive
10 | O=C(O[C@@H]1Cc2c(O)cc(O)cc2O[C@@H]1c1cc(O)c(O)c(O)c1)c1cc(O)c(O)c(O)c1 [EPIGALOCATECHIN GALLATE] |  |  |  |  | 5.27 |  | 4.45 | 63.3% | 53% | Activity (SARS-CoV-2 [18]): Active
11 | CC(C)C(=O)OCC(=O)[C@@]12O[C@H](C3CCCCC3)O[C@@H]1C[C@H]1[C@@H]3CCC4=CC(=O)C=C[C@]4(C)[C@H]3[C@@H](O)C[C@@]12C [CICLESONIDE] | 8.1 µM | 4.2 µM | Not Active |  | 4.69 | 5.00 |  | 66.1% | 57% | 
12 | C=C(C)[C@@H]1CCC(C)=C[C@H]1c1c(O)cc(CCCCC)c(C(=O)O)c1O [CANNABIDIOLIC ACID] | 61 µM | 14 µM | Not Active |  |  | 4.33 |  | 81.3% | 61% | inhibition (Sus scrofa [23]): Active; Activity [12]: Toxic; Activity (SARS-CoV-2 [18]): Active
13 | C=C[C@@](C)(/C=C/c1ccc(O)cc1)CCC=C(C)C [BAKUCHIOL] | 6.2 µM | 2.5 µM | Not Active | Active |  | 4.92 | 5.27 | 111% | 77% | pEC50 (SARS-CoV-2 [14]): 4.29
14 | O=c1cc(-c2ccc(O)c(O)c2)oc2cc(O)cc(O)c12 [LUTEOLIN] | 83 µM | 28 µM | Not Active |  | 5.00 | 4.82 |  | 89% | 107% | 
15 | CCOC(=O)c1c(CSc2ccccc2)n(C)c2cc(Br)c(O)c(CN(C)C)c12 [UMIFENOVIR] | 58 µM | 28 µM | Not Active | Active |  | 5.07 | 6.59 | 58% | 43% | pEC50 (SARS-CoV-2 [14]): 4.60; pEC50 (SARS-CoV-2 [9]): 6.36
16 | C[C@]12CC[C@@H]3c4ccc(O)cc4C[C@@H](CCCCCCCCC[S+]([O-])CCCC(F)(F)C(F)(F)F)[C@H]3[C@@H]1CC[C@@H]2O (stereo partly drawn) [FULVESTRANT] |  |  |  | Active |  |  |  |  |  | pEC50 (SARS-CoV-2 [9]): 6.72
17 | C[C@]12CC[C@@H]3c4ccc(OC(=O)c5ccccc5)cc4CC[C@H]3[C@@H]1CC[C@@H]2O [ESTRADIOL BENZOATE] | 9.3 µM | 1.8 µM | Not Active |  |  | 4.06 |  | 89.1% | 62% | pEC50 (SARS-CoV-2 [24]): 6.57
18 | CCCCCc1cc(O)c(C/C=C(\C)CCC=C(C)C)c(O)c1C(=O)O [CANNABIGEROLIC ACID] | 12 µM | 162 µM | Not Active | Active |  | 4.54 | 5.92 | 95.7% | 68% | inhibition (Sus scrofa [23]): Active; Activity [12]: Toxic; Activity (SARS-CoV-2 [18]): Active; Activity [20]: Active; Activity [21]: inactive; Activity [22]: inactive
19 | Cc1cc(O)c2c(=O)c3c(O)cc(O)c4c5c(O)cc(O)c6c(=O)c7c(O)cc(C)c8c1c2c(c34)c(c78)c65 [HYPERICIN] | 3.3 µM | 3.7 µM | Not Active |  | 5.91 | 6.52 | 4.07 | 90% | 99% | 
20 | Oc1ccc(-c2[o+]c3cc(O)cc(O)c3cc2O)cc1.[Cl-] [PELARGONIDIN CHLORIDE] | 79 µM | 56 µM | Not Active |  | 4.30 | 5.09 |  | 83% | 130% | 
21 | O=c1c(O)c(-c2ccc(O)c(O)c2)oc2cc(O)cc(O)c12 [QUERCETIN] | 62 µM | 100 µM | Not Active |  |  | 5.48 |  | 61% | 108% | 
